Tests used:
[1] = In vivo bioavailability in the mouse (cassette dosing); details: female SJL/N Tac mice; for half-life / clearance: mouse, nominal dose 1 mg/kg; for half-life: plasma half-life; for clearance: plasma; for F: oral bioavailability, nominal dose 1 mg/kg iv and oral
Method: In Vivo Bioavailability in the Mouse
Female mice (SJL/N Tac) were given a single intravenous or oral dose of a mixture of 5 or 6 compounds per cassette (nominal dose: 1 mg/kg/compound) in a solution containing 0.5% N,N′-dimethylacetamide (DMA) and 15% sulfobutyl ether β-cyclodextrin (Captisol®). Blood samples were taken from one mouse per time point and dose group until 24 hour after respective administration. The dose formulations and plasma concentrations of each compound were determined by LC-MS/MS. The pharmacokinetic parameters were determined by non-compartmental analysis using WinNonlin Professional (version 4.0.1). The elimination rate constant, λ, was estimated by linear regression analysis of the terminal slope of the logarithmic plasma concentration-time curve. The area under the plasma concentration-time curve, AUC0-t, was calculated by using the linear/logarithmic trapezoidal rule. The AUCinf was calculated with the residual area estimated as Cz/λ. The calculated plasma concentration at the last time point, Cz, was obtained from the regression equation. The oral bioavailability (F) was calculated as: Foral=(AUCinf,po/AUCinf,iv)·(Doseiv/Dosepo). Pharmacodynamic Assays
The compounds of the invention show oral bioavailability in the mouse. Using the procedures set forth in the in vivo bioavailability assay, various compounds of the invention were tested for their clearance (CL; L/h/kg), plasma half-life (t1/2; hrs) as well as oral bioavailability (F; %) after administration of the nominal dose of 1 mg/kg of each compound. Table 3 exemplifies the invention, without limiting the scope thereof.

CCR1 receptor = biological target: T1, CCR1 receptor (Homo sapiens, UniProt P32246); assay: In vitro Ca2+-flux assay on human monocytes (THP-1), MIP-1α stimulated; type: cell-based; details: block of MIP-1α induced Ca2+-flux in THP-1 cells; 2,5-dimethylpiperazine derivatives tested as racemic mixtures
T1 construct: host or cells: THP-1
T1 sequence (P32246 1-355): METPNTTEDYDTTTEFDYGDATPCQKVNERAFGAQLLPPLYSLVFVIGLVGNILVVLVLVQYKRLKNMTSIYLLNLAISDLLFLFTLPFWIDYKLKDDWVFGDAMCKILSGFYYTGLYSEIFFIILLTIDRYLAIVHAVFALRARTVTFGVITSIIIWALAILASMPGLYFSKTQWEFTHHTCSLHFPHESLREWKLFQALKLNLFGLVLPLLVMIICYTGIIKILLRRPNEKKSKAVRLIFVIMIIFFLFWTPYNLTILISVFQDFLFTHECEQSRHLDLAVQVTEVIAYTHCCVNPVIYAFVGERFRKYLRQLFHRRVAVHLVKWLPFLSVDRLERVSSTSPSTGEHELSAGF
Method: The binding of Mip-1α at the CCR1 receptor leads to an increase of intracellular calcium levels. The ability of the compounds of the invention to block this biologic response of the CCR1 receptor is determined in the Ca^2+-flux assay.
In Vitro Ca^2+-Flux Assay on Human Monocytes
• 1. Cell Culture: • a) THP-1 (ATCC Cat# TIB202) • b) Tissue culture medium: RPMI 1640 with Ultraglutamine 1 supplemented with 10% (v/v) foetal calf serum. This medium is hereinafter referred to as “growth medium”. • 2. Assay buffer: HBSS (Hanks' balanced salts solution), 20 mM HEPES, 1 mM CaCl2, 1 mM MgCl2, 2.5 mM Probenecid, pH 7.4. • 3. Fluo-4AM (Molecular Probes Cat # F14201) • 4. Pluronic® F-127 (Molecular Probes Cat # P-6867) • 5. The compounds of the invention were dissolved in DMSO. A serial dilution was made and nine concentrations of each compound were screened to generate a dose curve from which the IC50 value was determined. • 6. MIP-1α (Peprotech EC Ltd Cat# 300-08) • 7. Victor^2 1420 (Perkin Elmer) • 8. Microlite™^2+ (Dynex Cat # 7572) Assay Procedure:
THP-1 cells were grown in T-75 cm^2 flasks in growth medium at 37° C. in 5% CO2. The cells were harvested by centrifugation and resuspended in assay buffer. The cells were then loaded with 5 μM Fluo-4 and 0.02% pluronic acid (final concentrations) at 37° C. in 5% CO2 for 30 min. The excess dye was removed by washing with assay buffer. The cells were resuspended and 10^5 cells/well were added in a Microlite plate containing compounds and then incubated for 15 minutes at 37° C. in 5% CO2. The cells were then stimulated with MIP-1α and changes in intracellular free Ca^2+ concentration were measured with a Victor^2.
Using the procedures set forth in the competitive affinity binding assay and the Ca^2+-flux assay, various compounds of the invention were tested for their ability to block Ca^2+-flux (IC50^Ca). The results of some examples and the Compounds A, B, C, and D are shown in Table 2 where all IC50-values are given in nM (nano Molar). Table 2 exemplifies the invention without limiting the scope thereof.

Structure (SMILES)	half-life [1] [h]	clearance [1] [mL/min/kg]	F [1] [%]	IC50 (CCR1 receptor) [nM]
C[C@@H]1CN(C(=O)c2cc3cc(Br)ccc3o2)[C@@H](C)CN1Cc1ccc(F)cc1 (racemic) [Compound 3.1, (trans)-1-(5-Bromo-benzofuran-2-yl-carbonyl)-4-(4-fluorobenzyl)-2,5-dimethylpiperazine]	7	15	53	12
O=C(c1cc2ccccc2o1)N1CCN(Cc2ccc(Cl)cc2)CC1 [Compound C, 4-(4-chlorobenzyl)-1-(benzofuran-2-yl-carbonyl)-piperazine, reference compound]				> 1000
COc1cccc2cc(C(=O)N3C[C@@H](C)N(Cc4ccc(F)cc4)C[C@H]3C)oc12 (racemic) [Compound A, (cis)-4-(4-Fluorobenzyl)-1-(7-methoxy-benzofuran-2-yl-carbonyl)-2,5-dimethylpiperazine, reference compound]				> 1000
COc1cccc2cc(C(=O)N3C[C@@H](C)N(Cc4ccc(F)cc4)C[C@@H]3C)oc12 (racemic) [Compound D, (trans)-4-(4-Fluorobenzyl)-1-(7-methoxy-benzofuran-2-yl-carbonyl)-2,5-dimethylpiperazine, reference compound]				> 1000

The remaining lines, values ahead:

half-life [1] [h]	clearance [1] [mL/min/kg]	F [1] [%]	IC50 (CCR1 receptor) [nM]	Structure (SMILES)
4.8	43.3	72		C[C@@H]1CN(C(=O)c2cc3cc(Cl)ccc3o2)[C@@H](C)CN1Cc1ccc(F)cc1 (racemic) [Compound 4.1, (trans)-1-(5-Chloro-benzofuran-2-yl-carbonyl)-4-(4-fluorobenzyl)-2,5-dimethylpiperazine]
			20	Cc1ccc2cc(C(=O)N3C[C@@H](C)N(Cc4ccc(F)cc4)C[C@@H]3C)oc2c1 (racemic) [Compound 3.13, (trans)-4-(4-Fluorobenzyl)-1-(6-methyl-benzofuran-2-yl-carbonyl)-2,5-dimethylpiperazine]
			15	C[C@@H]1CN(C(=O)c2cc3cc(Cl)c(Cl)cc3[nH]2)[C@@H](C)CN1Cc1ccc(F)cc1 (racemic) [Compound 3.20, (trans)-(5,6-Dichloro-indol-2-yl-carbonyl)-4-(4-fluorobenzyl)-2,5-dimethylpiperazine]
